One series concerns the target P2Y1 receptor (Homo sapiens, UniProt P47900). Briefly: [Ca2+]i elevation in 1321N1 astrocytoma cells expressing GFP-P2Y1 receptor. The format is cell-based. To be noted: EC50 of the nucleotide in relation to the EC50 of ATP.
For another series, the target named is T1, TNAP (Homo sapiens, UniProt P05186).
T1 sequence (P05186 18-502 limits assumed): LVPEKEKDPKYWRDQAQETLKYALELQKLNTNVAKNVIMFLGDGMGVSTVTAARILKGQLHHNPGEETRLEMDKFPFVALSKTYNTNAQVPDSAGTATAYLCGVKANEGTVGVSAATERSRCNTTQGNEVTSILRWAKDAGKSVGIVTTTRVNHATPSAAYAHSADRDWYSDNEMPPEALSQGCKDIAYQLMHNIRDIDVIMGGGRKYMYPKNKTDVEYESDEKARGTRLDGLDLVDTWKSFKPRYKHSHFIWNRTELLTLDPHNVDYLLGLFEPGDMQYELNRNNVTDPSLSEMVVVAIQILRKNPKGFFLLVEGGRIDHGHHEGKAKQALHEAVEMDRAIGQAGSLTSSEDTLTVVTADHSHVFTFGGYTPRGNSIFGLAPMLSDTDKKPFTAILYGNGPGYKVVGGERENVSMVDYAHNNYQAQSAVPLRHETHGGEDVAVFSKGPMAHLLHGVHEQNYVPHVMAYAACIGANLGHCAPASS
Briefly: TNAP stability assay: hydrolysis by TNAP. In kind it is in vitro ADME. Conditions: 1 h, pH 9, 100 μM (data not shown).

Consider one compound from publication PMC4363092 (Journal of medicinal chemistry, 2014).

Chain of P2Y1 receptor (P47900 whole entry): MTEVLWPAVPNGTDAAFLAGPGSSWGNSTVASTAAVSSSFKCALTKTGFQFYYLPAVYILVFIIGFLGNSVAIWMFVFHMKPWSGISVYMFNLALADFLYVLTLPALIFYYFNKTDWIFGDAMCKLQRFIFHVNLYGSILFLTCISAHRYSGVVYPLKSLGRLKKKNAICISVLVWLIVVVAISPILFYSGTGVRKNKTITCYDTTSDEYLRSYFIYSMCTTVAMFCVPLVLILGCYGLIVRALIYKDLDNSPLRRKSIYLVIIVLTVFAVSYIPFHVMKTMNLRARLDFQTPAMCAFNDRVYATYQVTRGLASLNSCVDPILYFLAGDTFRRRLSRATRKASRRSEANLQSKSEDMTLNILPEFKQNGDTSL

For the compound `Nc1ncnc2c1ncn2[C@@H]1O[C@H](COP(=O)(O)OP(=O)(O)OP(=O)(O)O)[C@@H](O)[C@H]1O` [ATP, reference compound], the “increase in efficacy vs ATP, P2Y1” value at P2Y1 receptor stood at 1. The “hydrolysis by TNAP” value at TNAP was determined as 100%.
